Source: the kinase profiling compilation of Christmann-Franck et al. (2016)

Experiments:
Assay in all cases: KINOMEscan competition binding
Conditions in all cases: compound 10.0 µM
[1] = biological target: RIPK2 (human) (UniProt O43353)
[2] = biological target: MKNK1 (human) (UniProt Q9BUB5)
[3] = biological target: RPS6KA3 KD1 (human) (UniProt P51812)
[4] = biological target: NEK1 (human) (UniProt Q96PY6)
[5] = biological target: STK36 (human) (UniProt Q9NRP7)
[6] = biological target: MINK1 (human) (UniProt Q8N4C8)
[7] = biological target: CSF1R (human) (UniProt P07333)
[8] = biological target: RPS6KA1 KD1 (human) (UniProt Q15418)
[9] = biological target: EIF2AK2 (human) (UniProt P19525)
[10] = biological target: ROCK2 (human) (UniProt O75116)
[11] = biological target: EPHA7 (human) (UniProt Q15375)
[12] = biological target: WEE1 (human) (UniProt P30291)
[13] = biological target: AAK1 (human) (UniProt Q2M2I8)
Chain of AAK1 (human) (Q2M2I8 whole entry, looked up): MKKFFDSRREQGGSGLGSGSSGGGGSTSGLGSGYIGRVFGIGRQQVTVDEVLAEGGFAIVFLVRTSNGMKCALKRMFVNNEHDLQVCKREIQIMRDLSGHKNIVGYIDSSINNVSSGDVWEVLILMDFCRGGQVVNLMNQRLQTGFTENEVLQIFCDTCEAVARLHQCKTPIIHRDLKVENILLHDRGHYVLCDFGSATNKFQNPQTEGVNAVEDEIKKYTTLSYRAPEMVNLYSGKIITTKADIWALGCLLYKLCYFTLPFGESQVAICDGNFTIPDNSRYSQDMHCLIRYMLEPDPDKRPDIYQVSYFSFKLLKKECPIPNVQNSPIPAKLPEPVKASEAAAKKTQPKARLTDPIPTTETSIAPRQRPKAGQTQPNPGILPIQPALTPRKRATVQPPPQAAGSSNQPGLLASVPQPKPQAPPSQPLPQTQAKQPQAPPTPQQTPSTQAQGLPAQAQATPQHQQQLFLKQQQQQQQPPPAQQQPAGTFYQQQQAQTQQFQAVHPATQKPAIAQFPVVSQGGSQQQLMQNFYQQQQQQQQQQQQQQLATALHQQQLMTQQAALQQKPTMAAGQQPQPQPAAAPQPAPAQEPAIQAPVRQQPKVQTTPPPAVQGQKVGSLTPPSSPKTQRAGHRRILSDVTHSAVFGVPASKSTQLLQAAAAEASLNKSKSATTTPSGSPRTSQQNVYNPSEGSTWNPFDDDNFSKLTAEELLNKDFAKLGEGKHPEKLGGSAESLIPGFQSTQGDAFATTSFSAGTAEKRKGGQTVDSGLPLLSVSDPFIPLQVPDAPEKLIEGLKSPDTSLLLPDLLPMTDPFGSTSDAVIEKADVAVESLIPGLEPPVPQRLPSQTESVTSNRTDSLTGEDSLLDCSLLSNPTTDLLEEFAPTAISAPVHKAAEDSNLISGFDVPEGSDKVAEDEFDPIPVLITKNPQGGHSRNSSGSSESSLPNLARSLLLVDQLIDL

[14] = biological target: PLK3 (human) (UniProt Q9H4B4)
[15] = biological target: PIM1 (human) (UniProt P11309)
[16] = biological target: HIPK4 (human) (UniProt Q8NE63)
[17] = biological target: ANKK1 (human) (UniProt Q8NFD2)
[18] = biological target: PKMYT1 (human) (UniProt Q99640)
[19] = biological target: FYN (human) (UniProt P06241)
[20] = biological target: MARK4 (human) (UniProt Q96L34)
[21] = biological target: HUNK (human) (UniProt P57058)
[22] = biological target: PTK2B (human) (UniProt Q14289)
Chain of PTK2B (human) (Q14289 whole entry, looked up): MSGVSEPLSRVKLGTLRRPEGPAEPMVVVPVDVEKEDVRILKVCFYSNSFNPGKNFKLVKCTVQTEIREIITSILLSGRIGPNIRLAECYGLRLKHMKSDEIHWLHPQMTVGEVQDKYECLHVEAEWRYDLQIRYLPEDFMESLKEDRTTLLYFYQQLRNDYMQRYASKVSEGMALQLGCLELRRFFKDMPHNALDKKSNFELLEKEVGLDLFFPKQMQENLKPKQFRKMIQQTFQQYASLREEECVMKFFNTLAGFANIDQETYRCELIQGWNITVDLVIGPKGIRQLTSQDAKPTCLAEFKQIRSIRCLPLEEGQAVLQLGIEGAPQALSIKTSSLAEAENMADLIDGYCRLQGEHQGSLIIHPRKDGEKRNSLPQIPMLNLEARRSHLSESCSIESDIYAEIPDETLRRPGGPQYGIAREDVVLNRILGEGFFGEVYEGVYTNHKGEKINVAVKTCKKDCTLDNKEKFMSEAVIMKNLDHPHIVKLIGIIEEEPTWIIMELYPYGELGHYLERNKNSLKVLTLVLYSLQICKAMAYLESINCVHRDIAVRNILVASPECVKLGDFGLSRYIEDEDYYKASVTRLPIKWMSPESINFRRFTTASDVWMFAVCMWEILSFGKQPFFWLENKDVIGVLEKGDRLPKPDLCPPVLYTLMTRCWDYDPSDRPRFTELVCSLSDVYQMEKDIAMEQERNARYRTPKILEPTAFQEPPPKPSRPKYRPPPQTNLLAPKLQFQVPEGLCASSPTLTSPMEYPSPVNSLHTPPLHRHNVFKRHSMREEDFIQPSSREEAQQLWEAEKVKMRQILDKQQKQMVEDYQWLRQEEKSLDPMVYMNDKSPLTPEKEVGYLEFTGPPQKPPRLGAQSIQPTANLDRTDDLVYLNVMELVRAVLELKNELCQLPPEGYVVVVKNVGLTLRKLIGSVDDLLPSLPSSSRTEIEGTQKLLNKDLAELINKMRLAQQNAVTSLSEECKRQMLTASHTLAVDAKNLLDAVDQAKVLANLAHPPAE

[23] = biological target: NEK5 (human) (UniProt Q6P3R8)
[24] = test system: RET (human), P07949 [V804L]
Chain of RET (human), P07949 [V804L] (P07949 whole entry V804L, looked up): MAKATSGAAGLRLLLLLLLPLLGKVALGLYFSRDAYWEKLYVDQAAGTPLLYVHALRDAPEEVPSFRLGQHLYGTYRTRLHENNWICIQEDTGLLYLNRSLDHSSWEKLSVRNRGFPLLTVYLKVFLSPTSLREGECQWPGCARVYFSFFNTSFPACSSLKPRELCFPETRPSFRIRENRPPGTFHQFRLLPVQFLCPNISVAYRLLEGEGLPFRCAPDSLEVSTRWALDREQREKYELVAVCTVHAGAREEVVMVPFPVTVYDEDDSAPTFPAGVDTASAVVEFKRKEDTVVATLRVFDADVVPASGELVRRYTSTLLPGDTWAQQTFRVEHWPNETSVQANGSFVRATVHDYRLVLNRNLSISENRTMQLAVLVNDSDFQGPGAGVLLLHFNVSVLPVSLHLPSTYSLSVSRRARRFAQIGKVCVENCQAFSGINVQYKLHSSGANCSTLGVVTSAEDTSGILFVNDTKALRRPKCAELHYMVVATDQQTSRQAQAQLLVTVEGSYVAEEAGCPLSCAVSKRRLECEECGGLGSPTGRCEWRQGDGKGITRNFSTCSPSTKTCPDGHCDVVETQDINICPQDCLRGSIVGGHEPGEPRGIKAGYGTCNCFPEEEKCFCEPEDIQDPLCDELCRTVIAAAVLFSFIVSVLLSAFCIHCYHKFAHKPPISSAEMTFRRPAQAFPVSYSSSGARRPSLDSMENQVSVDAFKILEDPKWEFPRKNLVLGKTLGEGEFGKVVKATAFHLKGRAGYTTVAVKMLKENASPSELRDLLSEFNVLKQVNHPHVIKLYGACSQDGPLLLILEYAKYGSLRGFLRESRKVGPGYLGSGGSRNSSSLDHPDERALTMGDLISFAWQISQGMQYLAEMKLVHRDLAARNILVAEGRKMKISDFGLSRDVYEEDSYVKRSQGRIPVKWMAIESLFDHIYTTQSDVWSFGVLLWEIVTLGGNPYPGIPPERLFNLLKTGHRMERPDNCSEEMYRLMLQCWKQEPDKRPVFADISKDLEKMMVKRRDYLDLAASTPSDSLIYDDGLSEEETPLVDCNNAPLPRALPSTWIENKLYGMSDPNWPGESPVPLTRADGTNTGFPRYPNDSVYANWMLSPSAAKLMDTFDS

[25] = biological target: SIK1 (human) (UniProt P57059)
[26] = biological target: RPS6KA5 KD1 (human) (UniProt O75582)
[27] = biological target: FLT1 (human) (UniProt P17948)
[28] = biological target: EPHA8 (human) (UniProt P29322)
[29] = biological target: STK24 (human) (UniProt Q9Y6E0)
[30] = biological target: CHEK1 (human) (UniProt O14757)
[31] = biological target: MATK (human) (UniProt P42679)
[32] = biological target: MAPK15 (human) (UniProt Q8TD08)
[33] = biological target: NTRK3 (human) (UniProt Q16288)
Chain of NTRK3 (human) (Q16288 whole entry, looked up): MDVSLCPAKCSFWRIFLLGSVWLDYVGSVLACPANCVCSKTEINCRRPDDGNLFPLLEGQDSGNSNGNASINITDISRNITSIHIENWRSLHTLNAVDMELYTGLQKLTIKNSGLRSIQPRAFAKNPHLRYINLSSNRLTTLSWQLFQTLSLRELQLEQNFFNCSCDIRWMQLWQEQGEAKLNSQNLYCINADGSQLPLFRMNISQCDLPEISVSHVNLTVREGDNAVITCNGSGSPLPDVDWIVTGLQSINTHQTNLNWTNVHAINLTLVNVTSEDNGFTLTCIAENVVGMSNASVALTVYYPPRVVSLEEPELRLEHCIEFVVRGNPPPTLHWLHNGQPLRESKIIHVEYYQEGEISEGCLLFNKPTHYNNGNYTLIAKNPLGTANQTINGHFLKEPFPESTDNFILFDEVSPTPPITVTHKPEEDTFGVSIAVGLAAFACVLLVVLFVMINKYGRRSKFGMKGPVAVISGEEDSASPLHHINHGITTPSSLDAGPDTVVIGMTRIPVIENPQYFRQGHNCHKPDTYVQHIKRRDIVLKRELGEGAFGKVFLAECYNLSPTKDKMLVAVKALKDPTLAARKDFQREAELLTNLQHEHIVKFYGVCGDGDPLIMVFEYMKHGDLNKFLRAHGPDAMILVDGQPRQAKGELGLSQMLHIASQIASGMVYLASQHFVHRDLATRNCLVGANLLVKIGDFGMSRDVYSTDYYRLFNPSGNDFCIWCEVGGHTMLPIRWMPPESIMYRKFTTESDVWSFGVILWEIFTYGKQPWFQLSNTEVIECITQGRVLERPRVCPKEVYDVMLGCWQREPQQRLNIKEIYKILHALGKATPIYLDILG

[34] = biological target: STK4 (human) (UniProt Q13043)
[35] = biological target: AKT1 (human) (UniProt P31749)
[36] = biological target: RPS6KA5 KD2 (human) (UniProt O75582)
[37] = biological target: MAP3K15 (human) (UniProt Q6ZN16)
[38] = biological target: SRPK1 (human) (UniProt Q96SB4)
[39] = biological target: PTK2 (human) (UniProt Q05397)
[40] = biological target: TAOK3 (human) (UniProt Q9H2K8)

Measured: kinase still bound, per cent of control

Chain of MKNK1 (human) (Q9BUB5 whole entry, looked up): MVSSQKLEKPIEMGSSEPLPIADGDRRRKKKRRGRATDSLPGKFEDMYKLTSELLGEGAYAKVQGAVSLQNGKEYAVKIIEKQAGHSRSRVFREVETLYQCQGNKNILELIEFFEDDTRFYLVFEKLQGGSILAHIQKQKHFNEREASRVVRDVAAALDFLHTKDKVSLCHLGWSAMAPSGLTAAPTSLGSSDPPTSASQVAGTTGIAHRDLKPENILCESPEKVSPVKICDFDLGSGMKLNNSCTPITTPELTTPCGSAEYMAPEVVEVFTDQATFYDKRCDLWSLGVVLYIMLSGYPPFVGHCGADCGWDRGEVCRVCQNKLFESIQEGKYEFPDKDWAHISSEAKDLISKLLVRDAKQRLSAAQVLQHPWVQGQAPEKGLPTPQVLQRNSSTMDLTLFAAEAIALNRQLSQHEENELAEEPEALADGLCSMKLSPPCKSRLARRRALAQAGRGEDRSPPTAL
Chain of RIPK2 (human) (O43353 whole entry, looked up): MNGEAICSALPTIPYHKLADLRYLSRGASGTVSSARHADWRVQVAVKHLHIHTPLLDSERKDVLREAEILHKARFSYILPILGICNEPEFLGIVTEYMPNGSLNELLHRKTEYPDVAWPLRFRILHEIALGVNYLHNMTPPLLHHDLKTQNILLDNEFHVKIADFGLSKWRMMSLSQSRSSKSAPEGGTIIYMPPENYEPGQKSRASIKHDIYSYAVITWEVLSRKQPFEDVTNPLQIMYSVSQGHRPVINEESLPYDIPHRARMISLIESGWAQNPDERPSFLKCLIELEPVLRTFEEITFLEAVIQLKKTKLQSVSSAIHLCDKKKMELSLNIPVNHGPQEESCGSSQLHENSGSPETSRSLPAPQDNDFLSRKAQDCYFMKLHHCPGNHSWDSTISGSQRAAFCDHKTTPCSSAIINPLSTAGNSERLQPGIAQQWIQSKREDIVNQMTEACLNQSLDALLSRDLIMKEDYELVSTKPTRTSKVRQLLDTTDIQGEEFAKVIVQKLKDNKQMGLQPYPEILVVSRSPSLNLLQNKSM

CCOc1cc(N2CCC(O)CC2)ccc1Nc1ncc2c(n1)N(C)c1ccccc1C(=O)N2C
100%: all assays above

Cc1cn(-c2cc(C(=O)Nc3ccc(C)c(NC(=O)c4ccno4)c3)cc(C(F)(F)F)c2)cn1
9.6%: [19]
0.3%: [28]
0.2%: [7]
100%: all other assays above
